Measurements published in patent US8048899B2, “Compounds which selectively modulate the CB2 receptor” (Boehringer Ingelheim International GmbH, priority 2008, dated 2011).
Like-named read-outs stand apart in the source and are kept apart here.

Columns and labels:
human CB1R = molecular target: T1, human CB1R (Homo sapiens, UniProt P21554); assay: CB1R mediated modulation of cAMP synthesis; assay type: cell-based
T1 construct: host or cells: CHO cells
Method: C. CB1R Mediated Modulation of cAMP Synthesis:
Compounds of the invention are evaluated for their CB1 agonist or inverse agonistic activity in accordance with the following experimental method.
(§1) CHO cells expressing human CB1R (Euroscreen) are plated at a density of 5000 cells per well in 384 well plates and incubated overnight at 37° C. After removing the media, the cells are treated with test compounds diluted in stimulation buffer containing 1 mM IBMX, 0.25% BSA and 10 uM Forskolin. The assay is incubated for 30 minutes at 37° C. Cells are lysed and the cAMP concentration is measured using DiscoverX-XS cAMP kit, following the manufacturer's protocol. In this setting, agonists will decrease forskolin induced production of cAMP while inverse agonists will further increase forskolin induced production of cAMP. EC50 of agonists are calculated as follows. The maximal amount of cAMP produced by forskolin compared to the level of cAMP inhibited by 1 uM CP55940 is defined as 100%. […] Data is analyzed using a four-parameter logistic model. (Model 205 of XLfit 4.0).

human CB2R = molecular target: T2, human CB2R (Homo sapiens, UniProt P34972); assay: CB2R mediated modulation of cAMP synthesis; assay type: cell-based
T2 construct: host or cells: CHO cells
T2 sequence (P34972 whole entry): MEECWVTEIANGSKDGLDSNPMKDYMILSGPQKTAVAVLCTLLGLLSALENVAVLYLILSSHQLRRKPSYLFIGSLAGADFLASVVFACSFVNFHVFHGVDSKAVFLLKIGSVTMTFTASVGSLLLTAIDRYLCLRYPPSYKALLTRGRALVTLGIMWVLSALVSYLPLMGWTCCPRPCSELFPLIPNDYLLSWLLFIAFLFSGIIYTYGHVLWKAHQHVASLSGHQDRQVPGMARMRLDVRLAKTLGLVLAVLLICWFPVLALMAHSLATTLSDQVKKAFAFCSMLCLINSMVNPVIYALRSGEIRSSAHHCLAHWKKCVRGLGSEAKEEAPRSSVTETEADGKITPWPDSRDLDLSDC
Method: B. CB2R Mediated Modulation of cAMP Synthesis:
Compounds of the invention are evaluated for their CB2 agonist or inverse agonistic activity in accordance with the following experimental method.
as §1, with “CB2R” for “CB1R”

[1] = CHO cells expressing human CB1R, inhibition of forskolin-stimulated cAMP synthesis, read-out: CB1 EC50
[2] = CHO cells expressing human CB2R, inhibition of forskolin-stimulated cAMP synthesis, read-out: CB2 EC50

T1 sequence (P21554 whole entry): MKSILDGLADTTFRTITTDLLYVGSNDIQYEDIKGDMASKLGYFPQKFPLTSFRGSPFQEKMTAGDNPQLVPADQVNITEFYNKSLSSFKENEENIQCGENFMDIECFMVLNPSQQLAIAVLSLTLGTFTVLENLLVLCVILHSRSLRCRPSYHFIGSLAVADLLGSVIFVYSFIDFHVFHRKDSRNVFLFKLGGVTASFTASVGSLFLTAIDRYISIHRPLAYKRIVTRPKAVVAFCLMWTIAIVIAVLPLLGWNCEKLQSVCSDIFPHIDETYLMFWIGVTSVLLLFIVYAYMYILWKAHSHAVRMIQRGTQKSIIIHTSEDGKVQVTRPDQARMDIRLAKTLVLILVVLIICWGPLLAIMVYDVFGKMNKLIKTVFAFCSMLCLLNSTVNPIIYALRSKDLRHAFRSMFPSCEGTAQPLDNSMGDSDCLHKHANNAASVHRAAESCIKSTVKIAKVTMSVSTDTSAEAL

Compound `COc1ccc(-c2nnc(NC(=O)C(C)(C)S(=O)(=O)CC3(C)CCOCC3)[nH]2)cc1` has an EC50 (human CB1R; [1]) greater than 20000 nM and an EC50 (human CB2R; [2]) of 186 nM.
For `CC(C)(CO)c1cc(NC(=O)C(C)(C)S(=O)(=O)CC2CCC(=O)CC2)on1`, the EC50 (human CB1R) was greater than 50000 nM and the EC50 (human CB2R) was 68 nM.
For `COCC(C)(C)c1cc(NC(=O)C(C)(C)S(=O)(=O)CC2CC2)no1`, the EC50 (human CB1R; [1]) was greater than 50000 nM and the EC50 (human CB2R; [2]) was 121 nM.
`CC(C)(O)c1cc(NC(=O)C(C)(C)S(=O)(=O)C2CCOCC2)on1` showed an EC50 (human CB1R) greater than 50000 nM and an EC50 (human CB2R) of 88 nM.
For `COc1ccc(-c2nnc(NC(=O)C(C)(C)S(=O)(=O)C[C@H]3CCOC3)[nH]2)cc1`, the EC50 (human CB1R) was greater than 50000 nM and the EC50 (human CB2R) was 90 nM.
`CC(C)CCS(=O)(=O)C(C)(C)C(=O)Nc1nnc(C(C)(C)CO)s1` gave an EC50 (human CB1R) greater than 20000 nM and an EC50 (human CB2R) of 18 nM.
`COCC(C)(C)c1cc(NC(=O)C(C)(C)S(=O)(=O)C2CCOCC2)no1` gave an EC50 (human CB1R) greater than 50000 nM and an EC50 (human CB2R) of 3.5 nM.
Work on `CC(C)(CO)c1cc(NC(=O)C(C)(C)S(=O)(=O)C2CCN(S(C)(=O)=O)CC2)on1` yielded an EC50 (human CB1R) greater than 50000 nM and an EC50 (human CB2R) of 14 nM.
`CC(C)(CO)c1cc(NC(=O)C(C)(C)S(=O)(=O)C2CCN(S(C)(=O)=O)CC2)no1` gave an EC50 (human CB1R) greater than 50000 nM and an EC50 (human CB2R) of 91 nM.
Compound `COCC(C)(C)c1cc(NC(=O)C(C)(C)S(=O)(=O)CC2CC2)on1` has an EC50 (human CB1R; [1]) greater than 50000 nM and an EC50 (human CB2R; [2]) of 120 nM.
With `CC(C)(C(=O)Nc1cc(C2(CO)CCCC2)no1)S(=O)(=O)C1CCOCC1` the EC50 (human CB1R) was greater than 50000 nM and the EC50 (human CB2R) was 15 nM.
With `CC(C)(C(=O)Nc1cc(C2(CO)CCC2)no1)S(=O)(=O)C1CCOCC1` the EC50 (human CB1R) was greater than 50000 nM and the EC50 (human CB2R) was 77 nM.
With `COCC(C)(C)c1cc(NC(=O)C(C)(C)S(=O)(=O)CC2CCOCC2)on1` the EC50 (human CB1R) was greater than 20000 nM and the EC50 (human CB2R) was 29 nM.
`CO[C@H]1CC[C@@H](S(=O)(=O)C(C)(C)C(=O)Nc2cc(C(C)(C)CO)no2)CC1` gave an EC50 (human CB1R) greater than 50000 nM and an EC50 (human CB2R) of 57 nM.
Compound `CC(C)(CO)c1cc(NC(=O)C(C)(C)S(=O)(=O)CCC(F)(F)F)on1` has an EC50 (human CB1R; [1]) greater than 50000 nM and an EC50 (human CB2R; [2]) of 105 nM.
Compound `COCC(C)(C)c1cc(NC(=O)C(C)(C)S(=O)(=O)C2CCCC2)on1` has an EC50 (human CB1R) greater than 20000 nM and an EC50 (human CB2R) of 15 nM.
